Results published in US6737059B1, “Methods of inhibiting inflammatory processes and alleviating symptoms associated with multiple sclerosis” (Board of Regents of the University Washington, priority 1992, dated 2004).
“And” between values parts separate entries of the source, which are not always exact repeats. Identical values can stand only once.

Key:
[1] = system: Experimental Allergic Encephalomyelitis (EAE); assay: EAE in macaques: clinical evaluation and survival; type: in vivo, Macaca fascicularis
Procedure: Eighteen male monkeys Macaca fascicularis weighing 2-3 kg were sensitized to myelin basic protein (BP) by the intra dermal injection of 0.1 ml of an emulsion containing 5.0 mg of monkey BP and 0.5 mg of heat-killed M. tuberculosis. Each animal was obtained and housed by the Regional Primate Research Center at the University of Washington, Seattle. The Primate Center conforms to the National Institutes of Health Guide for the Care and Use of laboratory Animals. Ten days after sensitization to BP, each animal was outfitted with a femoral catheter and tether to facilitate blood sampling and the administration of treatments or anesthetics for magnetic resonance imaging (MRI). The animals were maintained on intravenous heparin (18 units/hour) to prevent blood clots from forming in the intra venous lines.
The animals were randomly admitted to specific treatment groups before they were sensitized to BP. This was done to schedule MRI and to prevent the severity of clinical signs at the onset from influencing the choice of therapy. Primate Center personnel, responsible for deciding when animals should be treated or sacrificed, were blinded regarding the treatment history of each animal. Table 1 below provides a statement of criteria for determination of clinical signs and grades of EAE in the animals.
At the onset of definite clinical signs (± to +) six EAE animals received a bolus injection of mAb 60.3 (2 mg/kg) and dexamethasone (4 mg/kg). […]. Sever acute EAE occurs in approximately 25 % of animals induced to develop EAE and is caused by edema in areas involving or impinging upon the brain stem or cerebral cortex. Following injection of the bolus, these six animals were treated by continuous infusion of mAb 60.3 (2 mg/kg/day) for seven days. […]. Six control EAE animals were treated only with dexamethasone, following the same protocol outlined above, and six additional controls were treated with continuous infusion of saline.
Animals that improved and/or stabilized as a result of therapy were sacrificed six weeks after the onset of clinical signs. Animals that experienced a clinical relapse (clinical signs ≧++) some time after the cessation of treatment and before six weeks had elapsed, were sacrificed shortly after the onset of the relapse. […] The statistical significance of differences in survival times in each treatment group was determined by two-tailed Student t analysis.
Disease progression was monitored by a combination of clinical evaluation, blood analysis and magnetic resonance imaging. Clinical evaluations were performed twice daily. […]

white blood cell = assay: WBC counts in blood of EAE animals; type: in vivo, Macaca fascicularis; details: individual animals
Source text: The hematologic hallmarks of untreated EAE are a progressive leukocytosis and lymphopenia prior to the onset of clinical signs. The leukocytosis can represent as much as a four-fold increase in the number of circulating PMNC and no significant changes in the frequency or absolute numbers of monocytes, eosinophils, or basophils. Following successful treatments of EAE, the absolute numbers of lymphocytes and PMNC return, fairly soon after the initiation of treatment, to pre-sensitization levels. Thus, continuous monitoring of blood leukocytes provides a useful measure of disease progression which complements the clinical evaluation and magnetic resonance imaging.
Blood was drawn on a weekly basis until the onset of clinical disease and then more frequently. One-half ml was sent to the hematology laboratory for WBC and differential counts. The results are set out in Table 3 below providing white blood cell number (×10^3) per mm^3 whole blood.
Two Macaca fascicularis monkeys were then involved in a study to preliminarily determine the ability of mAb 23F2G to alleviate EAE symptoms. The EAE induction procedures were essentially as in Example 1. Two animals, Nos. 89161 and 89186, sensitized to 1.0 mg of purified monkey basic protein and developed hyperacute hemorrhagic EAE 18 and 20 days post sensitization, respectively. Animal 89161 died within 12 hours of onset and before treatment with dexamethasone could be initiated. Animal 89186 was treated for a week with both dexamethasone (3 days at 4 mg/kg, 2 days at 2 mg/kg and 2 days at 1 mg/kg) and mAb 23F2G (7 days at 2 mg/kg, i.v.). The animal improved dramatically with complete resolution of paralysis three days after initiation of treatment. Lesions detected by MRI resolved four days after cessation of treatment and the animal improved dramatically with complete resolution of paralysis. Eight days following cessation of treatment, the animal relapsed and was sacrificed. […] The white blood cell count rose from 22.7×10^3 on the day of clinical onset to 82×10^3 /mm^3 on the last day of treatment.

With `C[C@@H]1C[C@H]2[C@@H]3CCC4=CC(=O)C=C[C@]4(C)[C@@]3(F)[C@@H](O)C[C@]2(C)[C@@]1(O)C(=O)CO` [dexamethasone] the mean survival time ([1]; after onset, group of six EAE macaques) was 7 days, the “survival after onset (range of group)” value ([1]; group of six EAE macaques) was 1 to 17 days and the “Grade (severity of clinical signs at time of sacrifice)” value ([1]; individual EAE macaques, 7-day treatment from onset of clinical signs, listed as dex alone) was “++”. For the same compound, the “Survival (days of survival post-onset)” value ([1]; individual EAE macaques, 7-day treatment from onset of clinical signs, stable animals sacrificed at six weeks (42 days), listed as dex alone) was 17 days and 1 days (2×) and 2 days and 13 days and 9 days, the “white blood cell number” value (white blood cell; Day 2) was 3.1 ×10^3 per mm^3 whole blood and 5.4 ×10^3 per mm^3 whole blood and the “white blood cell number” value (white blood cell; Day 4) was 3.7 ×10^3 per mm^3 whole blood and 3.6 ×10^3 per mm^3 whole blood. The “white blood cell number” value (white blood cell; Day 7 (end of treatment)) was 3.8 ×10^3 per mm^3 whole blood and 7.0 ×10^3 per mm^3 whole blood, the “white blood cell number” value (white blood cell; Day 10) was 8.7 ×10^3 per mm^3 whole blood and 10.7 ×10^3 per mm^3 whole blood and the “white blood cell number” value (white blood cell; Day 14) was 7.9 ×10^3 per mm^3 whole blood. For the same compound, the “white blood cell number” value (white blood cell; Onset of clinical signs (start of treatment)) was 9.6 ×10^3 per mm^3 whole blood and 9.0 ×10^3 per mm^3 whole blood and 14.6 ×10^3 per mm^3 whole blood and 32.2 ×10^3 per mm^3 whole blood and 12.4 ×10^3 per mm^3 whole blood and 16.3 ×10^3 per mm^3 whole blood and the “white blood cell number” value (white blood cell; Presens (baseline before sensitization)) was 4.7 ×10^3 per mm^3 whole blood and 6.1 ×10^3 per mm^3 whole blood and 6.7 ×10^3 per mm^3 whole blood and 13.5 ×10^3 per mm^3 whole blood and 8.9 ×10^3 per mm^3 whole blood and 14.1 ×10^3 per mm^3 whole blood.
